Reference: article PMC9779727, “Identification of Novel Artemisinin Hybrids Induce Apoptosis and Ferroptosis in MCF-7 Cells” (International Journal of Molecular Sciences, 2022)

Key:
[1] = system: MCF-7 cells; test: Cell colony formation assay; assay type: cell-based, human; settings: 12 d
Experimental: We chose a cell colony formation assay to determine the antiproliferative effect of the compound more intuitively.
MCF-7 cells were seeded into 6-well plates at 37 °C with 5% CO2 for 24 h and then treated with compound A8 at various concentrations (0, 2.5, 5 and 10 μM), ART (10 μM) and 5-FU (10 μM) for 12 d. Then, cells were stained with Giemsa and clones number were counted directly with naked eyes.

[2] = system: Bax; test: Western blotting, Bax expression; assay type: cell-based, human; settings: MCF-7, 0, 2.5, 5 and 10 μM, 48 h, GAPDH internal control
Experimental: Based on the JC-1 staining results, we further analyzed the expression of proteins related to apoptosis using a Western blotting assay with GAPDH as an internal control. […] Then, an excess of cytochrome C can enhance caspase-3 activation to stimulate apoptosis.
MCF-7 cells were seeded at a density of 4 × 10^5 cells per well and treated with various concentrations of compound A8 (0, 2.5, 5 and 10 μM) for 48 h. After this, cells were collected and washed twice with ice-cold DPBS. The pellets were resuspended in a total protein extraction buffer (20 mM HEPES, 350 mM NaCl, 20% glycerol, 1% NP-40, 1 mM MgCl2, 0.5 mM EDTA, 0.1 mM EGTA, 0.1 mM DTT, 0.1 mM PMSF) containing a protease inhibitor cocktail and incubated on ice for 30 min with intermittent mixing. The protein concentration was measured using the Bradford reagent (Bio-Rad Laboratories Inc., Hercules, CA, USA). An equal amount (20 μg) of protein was loaded on 10% polyacrylamide gels and transferred to a nitrocellulose membrane. After blocking with 5% skimmed milk, the membrane was incubated at 4 °C overnight with specific primary antibodies. The membrane was washed and incubated at room temperature for 1 h with secondary antibodies conjugated with horseradish peroxidase (HRP). Finally, the immunoblot was developed for visualization using a chemiluminescence kit. […]

[3] = molecular target: T1, CYP2C9 (Homo sapiens, UniProt P11712); test: CYPs inhibition assay, CYP2C9; assay type: in vitro ADME; settings: human liver microsomes
T1 construct: from tissue; host or cells: human liver microsomes
T1 sequence (P11712 whole entry): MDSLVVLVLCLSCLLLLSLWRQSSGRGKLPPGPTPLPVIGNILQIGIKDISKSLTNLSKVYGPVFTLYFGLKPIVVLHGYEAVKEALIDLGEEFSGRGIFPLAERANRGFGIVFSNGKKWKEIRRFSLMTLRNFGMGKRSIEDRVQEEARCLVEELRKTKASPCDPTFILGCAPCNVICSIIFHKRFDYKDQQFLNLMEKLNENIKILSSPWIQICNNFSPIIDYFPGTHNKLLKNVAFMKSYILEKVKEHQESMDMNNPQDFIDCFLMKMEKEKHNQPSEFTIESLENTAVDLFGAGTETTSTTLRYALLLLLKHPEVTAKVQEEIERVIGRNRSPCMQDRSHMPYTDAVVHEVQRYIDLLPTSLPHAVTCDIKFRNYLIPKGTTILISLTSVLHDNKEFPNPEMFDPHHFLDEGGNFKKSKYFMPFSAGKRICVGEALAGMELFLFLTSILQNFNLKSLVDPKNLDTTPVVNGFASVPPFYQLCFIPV
Experimental: Finally, we evaluated the interaction between the hybrid A8 and five major metabolic enzymes (CYP1A2, CYP2C9, CYP2C19, CYP2D6 and CYP3A4) in the human body. […] It is also one of the directions for our further transformation and optimization.
Cytochrome P450 inhibition was evaluated in human liver microsomes (0.253 mg/mL) using five […] (CYP1A2, α-Naphthoflavone; CYP2C9, Sulfaphenazole; CYP2C19, Benzylnirvanol; CYP2D6, Quinidine; and CYP3A4, Ketoconazole.) in the presence of compound A8 (10 μM). After preincubation for 10 min at 37 °C, an NADPH-regenerating system was added. After the mixed system was incubated for 15 min at 37 °C, the reaction was stopped by adding 400 μL of cold stop solution (200 ng/mL tolbutamide and 200 ng/mL labetalol in acetonitrile). Then, the mixture was centrifuged, and the supernatant was analyzed by LC-MS/MS.

## CC1CCC2C(C)C(OC(=O)CCC(=O)NCc3nnc(Nc4ccc(F)cc4F)o3)OC3OC4(C)CCC1C32OO4 (stereo not shown) [A8]
[1]; MCF-7, 0, 2.5, 5 and 10 μM
  cell colony number (in words): decreased in a dose-dependent manner
[1]; MCF-7, same administration concentration (10 μM)
  antiproliferative effect in colony formation compared with controls (in words): better than that of 5-FU and ART
[2]
  expression of Bax (in words): upregulated
[3]
  Inhibition at 10 μM (%) CYP2C9: 6.4%
